In ChEMBL document CHEMBL4393711, “Discovery and synthesis of novel indole derivatives-containing 3-methylenedihydrofuran-2(3H)-one as irreversible LSD1 inhibitors” (Eur J Med Chem, 2019):

Biological target: T1, Lysine-specific histone demethylase 1A (Homo sapiens, UniProt O60341)
Assay: Inhibition of recombinant LSD1 (unknown origin) (catalytic domain 157 to 852 residues) expressed in Escherichia coli BL21 using H3K4me1 as substrate incubated for 1 hr by horse-radish peroxidase/amplex red-based fluorescence method
Conditions: not given

Structure (SMILES)	IC50 [µM]
CC1=CCSC1C(=O)c1cn(Cc2ccc(F)cc2)c2ccc(Cl)cc12 (stereo unspecified)	> 10
O=C(c1ccco1)c1cn(Cc2ccc(F)cc2)c2ccc(Cl)cc12	> 10
C=C1C(=O)OCC1C(O)c1cn(Cc2cncc(C)c2)c2ccc(Cl)cc12 (stereo unspecified)	> 10
C=C1C(=O)OCC1C(O)c1cn(Cc2ccc(Cl)cc2)c2c(Cl)cccc12 (stereo unspecified)	> 10
O=C(c1ccc(F)cc1)c1cn(Cc2ccc(F)cc2)c2ccc(Cl)cc12	> 10
C=C1C(=O)OCC1C(O)c1cn(Cc2nc3ccccc3s2)c2ccc(Cl)cc12 (stereo unspecified)	> 10
C=C1C(=O)OCC1C(O)c1cn(C(=O)c2sccc2C)c2ccc(Cl)cc12 (stereo unspecified)	> 10
O=C(/C=C/c1ccco1)c1cn(Cc2ccc(F)cc2)c2ccc(Cl)cc12	> 10
OC(c1ccccc1)c1cn(Cc2ccc(F)cc2)c2ccc(Cl)cc12 (stereo unspecified)	> 10
C=C1C(=O)OCC1C(O)c1cn(Cc2ccc(Cl)cc2)c2ccc(OC)cc12 (stereo unspecified)	> 10
C=C1C(=O)OCC1C(O)c1cn(C(=O)/C=C/c2ccccc2)c2ccc(Cl)cc12 (stereo unspecified)	> 10
C=C1C(=O)OCC1C(O)c1cn(Cc2ccc(Cl)cc2)c2cccc(OC)c12 (stereo unspecified)	> 10
C=C1C(=O)OCC1C(O)c1cn(C(=O)c2ccco2)c2ccc(Cl)cc12 (stereo unspecified)	> 10
C=C1C(=O)OCC1C(O)c1cn(Cc2ccc(Cl)s2)c2ccc(Cl)cc12 (stereo unspecified)	> 10
C=C1C(=O)OCC1C(O)c1cn(Cc2ccc(Cl)cn2)c2ccc(Cl)cc12 (stereo unspecified)	> 10
C=C1C(=O)OCC1C(O)c1cn(Cc2ccc(Cl)cc2)c2ccc(Cl)cc12 (stereo unspecified)	> 10
C=C1C(=O)OCC1C(O)c1cn(Cc2nc3ccccc3o2)c2ccc(Cl)cc12 (stereo unspecified)	> 10
O/N=C(\c1ccccc1)c1cn(Cc2ccc(F)cc2)c2ccc(Cl)cc12	> 10
C=C1C(=O)OCC1C(O)c1cn(C(=O)C2CC2)c2ccc(Cl)cc12 (stereo unspecified)	> 10
O=C(c1ccnc(Cl)c1)c1cn(Cc2ccc(F)cc2)c2ccc(Cl)cc12	> 10
O=C(c1ccccc1)c1cn(Cc2ccc(F)cc2)c2ccc(Cl)cc12	> 10

Structure (SMILES)	IC50 [µM]
C=C1C(=O)OCC1C(O)c1cn(C(=O)c2cccnc2Cl)c2ccc(Cl)cc12 (stereo unspecified)	> 10
C=C1C(=O)OCC1C(O)c1cn(Cc2ccc(Cl)cc2)c2cccc(Cl)c12 (stereo unspecified)	> 10
O=C(c1ccncc1)c1cn(Cc2ccc(F)cc2)c2ccc(Cl)cc12	> 10
CC(=O)c1cn(Cc2ccc(F)cc2)c2ccc(Cl)cc12	> 10
C=C1C(=O)OCC1C(O)c1cn(Cc2ccc(Cl)cc2)c2c(OC)cccc12 (stereo unspecified)	> 10
C=C1C(=O)OCC1C(O)c1cn(Cc2csc(N)n2)c2ccc(Cl)cc12 (stereo unspecified)	> 10
C=C1C(=O)OCC1C(O)c1cn(Cc2ncccn2)c2ccc(Cl)cc12 (stereo unspecified)	> 10
Cc1ccc(C(=O)c2cn(Cc3ccc(F)cc3)c3ccc(Cl)cc23)cc1	> 10
C=C1C(=O)OCC1C(O)c1cn(Cc2ccncc2)c2ccc(Cl)cc12 (stereo unspecified)	> 10
C=C1C(=O)OCC1C(O)c1cn(Cc2c(C)noc2C)c2ccc(Cl)cc12 (stereo unspecified)	> 10
C=C1C(=O)OCC1C(O)c1cn(Cc2nc(C)c3ccccc3n2)c2ccc(Cl)cc12 (stereo unspecified)	> 10
C=C1C(=O)OCC1C(O)c1cn(Cc2nc3ccccc3[nH]2)c2ccc(Cl)cc12 (stereo unspecified)	> 10
C=C1C(=O)OCC1C(O)c1cn(Cc2ccc(Cl)cc2)c2ccc(F)cc12 (stereo unspecified)	> 10
C=C1C(=O)OCC1C(O)c1cn(Cc2ccc(Cl)cc2)c2cc(OC)ccc12 (stereo unspecified)	> 10
C=C1C(=O)OCC1C(O)c1cn(Cc2ccc(Cl)cc2)c2cc(Cl)ccc12 (stereo unspecified)	> 10
C=C1C(=O)OCC1C(O)c1cn(CC2CC2)c2ccc(Cl)cc12 (stereo unspecified)	> 10
O=C(/C=C/c1cccs1)c1cn(Cc2ccc(F)cc2)c2ccc(Cl)cc12	> 10
C=C1C(=O)OCC1C(O)c1cn(C(=O)c2c(C)noc2C)c2ccc(Cl)cc12 (stereo unspecified)	> 10
C=C1C(=O)OCC1C(O)c1cn(Cc2cnc(Cl)s2)c2ccc(Cl)cc12 (stereo unspecified)	> 10
O=C(c1cn(Cc2ccc(F)cc2)c2ccc(Cl)cc12)C1CC1	> 10

System: THP-1
Assay: Antiproliferative activity against human THP1 cells assessed as reduction in cell viability incubated for 5 days by MTT assay
Conditions: THP-1, 120 h

Structure (SMILES)	IC50 [µM]
C=C1C(=O)OCC1C(O)c1cn(Cc2ccc(F)cc2)c2ccc(Cl)cc12 (stereo unspecified)	1.2

System: THP-1
Assay: Inhibition of colony formation in human THP1 cells incubated for 2 weeks by microscopic analysis
Format: functional, cell-based
Conditions: not given

Structure (SMILES)	inhibition
C=C1C(=O)OCC1C(O)c1cn(Cc2ccc(F)cc2)c2ccc(Cl)cc12 (stereo unspecified)	Dose-dependent effect
c1ccc([C@@H]2C[C@H]2NC2CCNCC2)cc1	Dose-dependent effect

System: THP-1
Assay: Induction of cellular morphology change in human THP1 cells assessed as blurred cell membrane boundaries with chromatin shrinkage incubated for 3 days by hematoxylin and eosin staining based microscopic analysis
Format: functional
Conditions: not given

Structure (SMILES)	Activity
C=C1C(=O)OCC1C(O)c1cn(Cc2ccc(F)cc2)c2ccc(Cl)cc12 (stereo unspecified)	Dose-dependent effect
c1ccc([C@@H]2C[C@H]2NC2CCNCC2)cc1	Dose-dependent effect

Biological target: T1, Lysine-specific histone demethylase 1A
Conditions: not given

Structure (SMILES)	Ka [×10³ /M.s]
c1ccc([C@@H]2C[C@H]2NC2CCNCC2)cc1	2.6

Biological target: T1, Lysine-specific histone demethylase 1A
Conditions: not given
Remark: another data set of the same source

Structure (SMILES)	Kdiss [×10⁻¹ /s]
c1ccc([C@@H]2C[C@H]2NC2CCNCC2)cc1	1.11

Biological target: T1, Lysine-specific histone demethylase 1A
Conditions: not given
Remark: another data set of the same source

Structure (SMILES)	ΔTm [°C]
c1ccc([C@@H]2C[C@H]2NC2CCNCC2)cc1	2.21

Biological target: T1, Lysine-specific histone demethylase 1A
Conditions: not given
Remark: another data set of the same source

Structure (SMILES)	ΔTm [°C]
c1ccc([C@@H]2C[C@H]2NC2CCNCC2)cc1	4.28

Biological target: T1, Lysine-specific histone demethylase 1A
Conditions: not given
Remark: another data set of the same source

Structure (SMILES)	ΔTm [°C]
c1ccc([C@@H]2C[C@H]2NC2CCNCC2)cc1	8.37
